pEC50: −log10 of the molar value. The source made the active and inactive calls.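 Rule for the calls: active = half-maximal effective concentration EC50 under 50 µM in the live-cell XTT test; inactive = the rest.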

The test system of this test is MV4;11 AML cells, XTT viability. The experiment in a line: antiproliferative activity against MV4,11 AML cells – cell-based, XTT absorbance, dose response (AID 1794807).
`O=C(NCC1CCNCC1)c1cc2cc(-c3cn[nH]c3)ccc2[nH]1`: the EC50 is > 50 µM (inactive).

On to `O=C(NCC1CCNCC1)c1c[nH]c2cc(-c3ccc(N4CCCCC4)cc3)ccc12`, for which the negative logarithm of the EC50 (pEC50) was 4.48.

`O=C(NCC1CCNCC1)c1cc2cc(-c3ccc(N4CCCCC4)cc3)ccc2s1`: the pEC50 was 5.09.

As to `O=C(NCC1CCNCC1)c1coc2cc(-c3ccc(N4CCCCC4)cc3)ccc12`, the pEC50 is 4.68.

For `O=C(NCC1CCNCC1)c1cc2ccc(-c3ccc(N4CCCCC4)cc3)cc2s1`, the negative-log EC50 (pEC50) was 5.02.

On to `NCc1ccc(-c2ccc3cc(C(=O)NCC4CCNCC4)oc3c2)cc1`, for which the EC50 is 50 µM (inactive).

As for `O=C(NCC1CCNCC1)c1cc2cc(-c3ccc(N4CCCCC4)cc3)ccc2[nH]1`, the negative-log EC50 (pEC50) is 4.66.

For the compound `NC(=O)c1ccc(-c2ccc3cc(C(=O)NCC4CCNCC4)sc3c2)cc1`, the EC50 was > 50 µM (inactive).

`O=C(NCC1CCNCC1)c1cc2ccc(-c3ccc(N4CCCC4)cc3)cc2s1`: the pEC50 was 5.06.

For `O=C(NCC1CCNCC1)c1c[nH]c2cc(-c3ccc(N4CCCC4)cc3)ccc12`, the pEC50 was 4.59.

(Values after PubChem BioAssay AID1794807 (Yongcheng Song lab at Baylor College of Medicine, 2022).)
